Results: patent publication US4841044A, “Cephalosporin derivatives” (Taisho Pharmaceutical Co., Ltd., priority 1985, dated 1989)
≈ marks a conversion by molar mass, not a printed value. Read-outs that look alike come from different tables or passages of the source.

How the values were obtained:
[1] = system: Escherichia coli NIHJ JC-2; test: Antibacterial activity (MIC), agar plate dilution method; format: cell-based
Description: (§1) The antibacterial activity of the compounds of the present invention against various bacteria (inoculum size: 10^6 cells/ml) were tested by the agar plate dilution method, and the results are shown in the following Table 1.

[2] = system: Klebsiella pneumoniae IFO 3317; test: as above; format: cell-based
Description: as §1

[3] = system: Proteus mirabilis IFO 3849; test: as above; format: cell-based
Description: as §1

[4] = system: Serratia marcescens IID 618; test: as above; format: cell-based
Description: as §1

[5] = in vivo; conditions: rat, blood, oral, 50 mg/kg, male wister rats (7 weeks old), bioassay (Escherichia coli SC507); for concentration at 4 h: Four Hours; for concentration at 1 h: One Hour; for concentration at 2 h: Two Hours
Description: Male wister rats (7 weeks old) were administered orally with the test compound, and the change of the concentration of the compound in blood was measured.
Dosage of the test compound:
Quantitative method: Bioassay
(test bacterium: Escherichia coli SC507)

Compound	MIC ([1]; Escherichia coli, NIHJJC2)	MIC ([2]; Klebsiella pneumoniae, IFO3317)	MIC ([3]; Proteus mirabilis, IFO3849)	MIC ([4]; Serratia marcescens, IID618)	concentration at 4 h [5]	concentration at 1 h [5]	concentration at 2 h [5]	MIC ([1]; NIHJJC2, Escherichia coli NIHJ JC-2, inoculum size: 10^6 cells/ml, agar plate dilution, read-out: MIC)	MIC ([2]; IFO3317, Klebsiella pneumoniae IFO 3317, inoculum size: 10^6 cells/ml, agar plate dilution, read-out: MIC)	MIC ([3]; IFO3849, Proteus mirabilis IFO 3849, inoculum size: 10^6 cells/ml, agar plate dilution, read-out: MIC)	MIC ([4]; IID618, Serratia marcescens IID 618, inoculum size: 10^6 cells/ml, agar plate dilution, read-out: MIC)	MIC ([1]; Escherichia coli NIHJ JC-2, inoculum size: 10^6 cells/ml, agar plate dilution)	MIC ([2]; Klebsiella pneumoniae IFO 3317, inoculum size: 10^6 cells/ml, agar plate dilution)	MIC ([3]; Proteus mirabilis IFO 3849, inoculum size: 10^6 cells/ml, agar plate dilution)	MIC ([4]; Serratia marcescens IID 618, inoculum size: 10^6 cells/ml, agar plate dilution)
CC1=C(C(=O)O)N2C(=O)[C@@H](NC(=O)[C@H](N)c3ccccc3)[C@H]2SC1 [YY, Cefalexin, reference compound]	12.5 µg/mL (≈ 36 µM)	6.25 µg/mL (≈ 18 µM)	12.5 µg/mL (≈ 36 µM)	> 100 µg/mL	–	–	–	–	–	–	–	–	–	–	–
CCNC(=O)/C=C\SC1=C(C(=O)[O-])N2C(=O)[C@@H](NC(=O)/C(=N\OCC(=O)[O-])c3csc(N)n3)[C@H]2SC1.[Na+].[Na+]	0.39 µg/mL	0.05 µg/mL	0.025 µg/mL	0.39 µg/mL	24200 ng/mL	26800 ng/mL	34300 ng/mL	–	–	–	–	–	–	–	–
CNC(=O)/C=C\SC1=C(C(=O)O)N2C(=O)[C@@H](NC(=O)/C(=N\OCC(=O)O)c3csc(N)n3)[C@H]2SC1 [C]	–	–	–	–	22400 ng/mL	20800 ng/mL	26600 ng/mL	0.2 µg/mL (≈ 0.369 µM)	0.05 µg/mL (≈ 0.0922 µM)	0.025 µg/mL (≈ 0.0461 µM)	0.39 µg/mL (≈ 0.719 µM)	–	–	–	–
CN(C)C(=O)/C=C\SC1=C(C(=O)[O-])N2C(=O)[C@@H](NC(=O)/C(=N\OCC(=O)O)c3csc(N)n3)[C@H]2SC1.[Na+] [A, 7β-{α-(2-aminothiazole-4-yl)-α-[(Z)-carboxymethoxyimino]acetamido}-3-[(Z)-2-N,N-dimethylaminocarbonylvinylthio]-3-cephem-4-carboxylic acid sodium salt]	–	–	–	–	–	–	–	–	–	–	–	0.2 µg/mL	0.05 µg/mL	< 0.025 µg/mL	0.2 µg/mL
